This passage reports inhibition results from paper PMC11855827, “High-Throughput Screening of Five Compound Libraries for Anthelmintic Activity and Toxicity Leads to the Discovery of Two Flavonoid Compounds” (International Journal of Molecular Sciences, 2025).

One may read the inhibition as the relative decrease from the control value, in per cent.

This experiment relates to C. elegans. Briefly: microbe, parasite or virus in culture. The note with it: Caenorhabditis elegans.
Setting [1] is: 0 h, read-out: Percentage of motility inhibition 0 h.
The mark [2] stands for this setting: 24 h, read-out: Percentage of motility inhibition 24 h.
[3] abbreviates: 0 h, read-out: Percentage of motility inhibition 0 h, Table S2, C. elegans SS assay, 110 μM, 0 h, averages of 4 data points.
Setting [4] is: 24 h, read-out: Percentage of motility inhibition 24 h, Table S2, C. elegans SS assay, 110 μM, 24 h, averages of 4 data points.

Read-outs that look alike come from different tables or passages of the source.

As for `CC1(C)[C@H](C(=O)O)N2C(=O)C[C@H]2S1(=O)=O` [Sulbactam], the inhibition at 110 µM runs as follows: under setting [1], 1%; under setting [2], 9%.

As to `Nc1ccc(S(=O)(=O)Nc2ccc(Cl)nn2)cc1` [Sulfachloropyridazine], the inhibition at 110 µM worked out at 14% under setting [3] and 0% under setting [4].

Consider `Nc1ccc(S(=O)(=O)Nc2ncccn2)cc1` [Sulfadiazine], for which the inhibition at 110 µM by setting is: under setting [3], 14%; under setting [4], 7%.

As to `COc1cc(NS(=O)(=O)c2ccc(N)cc2)nc(OC)n1` [Sulfadimethoxine], the inhibition at 110 µM reads like this: under setting [3], 15%; under setting [4], 3%.

With `COc1ncnc(NS(=O)(=O)c2ccc(N)cc2)c1OC` [Sulfadoxine], the inhibition at 110 µM turned out to be 18% under setting [3] and 5% under setting [4].

Turning to `[H]/N=C(/N)NS(=O)(=O)c1ccc(N)cc1` [Sulfaguanidine], the inhibition at 110 µM runs as follows: under setting [3], 22%; under setting [4], 8%.

For `COc1nccnc1NS(=O)(=O)c1ccc(N)cc1` [Sulfalene], the inhibition at 110 µM was determined as 2% under setting [3] and 15% under setting [4].

`Cc1ccnc(NS(=O)(=O)c2ccc(N)cc2)n1` [Sulfamerazine]: the inhibition at 110 µM runs as follows: under setting [3], 12%; under setting [4], 7%.

Take `COc1cnc(NS(=O)(=O)c2ccc(N)cc2)nc1` [Sulfameter]: the inhibition at 110 µM is 25% under setting [3] and 8% under setting [4].

As for `Cc1cc(C)nc(NS(=O)(=O)c2ccc(N)cc2)n1` [Sulfamethazine], the inhibition at 110 µM runs as follows: under setting [3], 5%; under setting [4], 3%.

Turning to `Cc1nnc(NS(=O)(=O)c2ccc(N)cc2)s1` [Sulfamethizole], the inhibition at 110 µM runs as follows: under setting [3], 4%; under setting [4], 0%.

On to `Cc1cc(NS(=O)(=O)c2ccc(N)cc2)no1` [Sulfamethoxazole], for which the inhibition at 110 µM is, setting by setting: under setting [3], 30%; under setting [4], 11%.

Consider `COc1ccc(NS(=O)(=O)c2ccc(N)cc2)nn1` [Sulfamethoxypyridazine], for which the inhibition at 110 µM amounted to 2% under setting [3] and 8% under setting [4].

As to `COc1cc(NS(=O)(=O)c2ccc(N)cc2)ncn1` [Sulfamonomethoxine], the inhibition at 110 µM under setting [3] turned out to be 6% and the inhibition at 110 µM under setting [4] worked out at 1%.

Consider `Nc1ccc(S(N)(=O)=O)cc1` [Sulfanilamide], for which the inhibition at 110 µM came to 21% under setting [3] and 7% under setting [4].

With `Nc1ccc(S(=O)(=O)Nc2ccnn2-c2ccccc2)cc1` [Sulfaphenazole], the inhibition at 110 µM was 0% under setting [3] and 3% under setting [4].

`Cc1noc(NS(=O)(=O)c2ccc(N)cc2)c1C` [Sulfisoxazole]: the inhibition at 110 µM reads like this: under setting [3], 9%; under setting [4], 7%.

Regarding `CC(=O)NC[C@H]1CN(c2ccc(N3CCSCC3)c(F)c2)C(=O)O1` [Sutezolid], the inhibition at 110 µM under setting [3] came to 16% and the inhibition at 110 µM under setting [4] came to 4%.

In the case of `COc1cc(O)c2c(=O)c3c(O[C@@H]4O[C@H](CO)[C@@H](O)[C@H](O)[C@H]4O)ccc(O)c3oc2c1` [Swertianolin], the inhibition at 110 µM reads like this: under setting [3], 11%; under setting [4], 0%.

For `COc1cc(C=O)cc(OC)c1O` [Syringaldehyde], the inhibition at 110 µM amounted to 4% under setting [1] and 3% under setting [2].

For `CC[C@]12C=CCN3CC[C@]4(C(=C(C(=O)OC)C1)Nc1ccccc14)[C@@H]32` [Tabersonine], the inhibition at 110 µM by setting is: under setting [3], 0%; under setting [4], 1%.

On to `CCN1C[C@]2(COC)CC[C@H](OC)[C@]34C1[C@H](C[C@H]23)[C@@]1(O)C[C@H](OC)[C@H]2C[C@@H]4[C@@H]1[C@H]2O` [Talatisamine], for which the inhibition at 110 µM was 6% under setting [3] and 0% under setting [4].

`COc1ccc(-c2oc3cc(O)cc(O)c3c(=O)c2O)cc1O` [Tamarixetin]: the inhibition at 110 µM reads like this: under setting [3], 20%; under setting [4], 10%.

As for `COc1ccc(-c2cc(=O)c3c(OC)c(OC)c(OC)c(OC)c3o2)cc1` [Tangeretin], the inhibition at 110 µM is 14% under setting [3] and 8% under setting [4].

`Cc1coc2c1C(=O)C(=O)c1c-2ccc2c(C)cccc12` [Tanshinone I]: the inhibition at 110 µM runs as follows: under setting [3], 0%; under setting [4], 3%.

With `NCCS(=O)(=O)O` [Taurine], the inhibition at 110 µM under setting [3] worked out at 8% and the inhibition at 110 µM under setting [4] worked out at 0%.

For `C[C@H](CCC(=O)NCCS(=O)(=O)O)[C@H]1CC[C@H]2[C@@H]3CC[C@@H]4C[C@H](O)CC[C@]4(C)[C@H]3C[C@H](O)[C@]12C` [Taurodeoxycholic acid], the inhibition at 110 µM is, setting by setting: under setting [3], 0%; under setting [4], 7%.

For `O=C1c2c(O)cc(O)cc2OC(c2ccc(O)c(O)c2)C1O` (centres unmarked) [Taxifolin], the inhibition at 110 µM runs as follows: under setting [3], 10%; under setting [4], 14%.

Turning to `C[C@]1(Cn2ccnn2)[C@H](C(=O)O)N2C(=O)C[C@H]2S1(=O)=O` [Tazobactam], the inhibition at 110 µM stood at 16% under setting [3] and 21% under setting [4].

Consider `C[C@@H](O)[C@H]1C(=O)N2C(C(=O)O)=C(SC3CN(C4=NCCS4)C3)[C@H](C)[C@H]12` [Tebipenem], for which the inhibition at 110 µM under setting [3] is 0% and the inhibition at 110 µM under setting [4] was determined as 7%.

With `CC(C)(C)C(O)(CCc1ccc(Cl)cc1)Cn1cncn1` (centres unmarked) [Tebuconazole], the inhibition at 110 µM was determined as 32% under setting [3] and 1% under setting [4].

For the compound `COc1c(O[C@@H]2O[C@H](CO)[C@@H](O)[C@H](O)[C@H]2O)cc2occ(-c3ccc(O)cc3)c(=O)c2c1O` [Tectoridin], the inhibition at 110 µM under setting [3] came out at 1% and the inhibition at 110 µM under setting [4] amounted to 11%.

As for `COc1c(O)cc2occ(-c3ccc(O)cc3)c(=O)c2c1O` [Tectorigenin], the inhibition at 110 µM by setting is: under setting [1], 0%; under setting [2], 0%.

As to `Cn1nnc(-c2ccc(-c3ccc(N4C[C@H](CO)OC4=O)cc3F)cn2)n1` [Tedizolid], the inhibition at 110 µM by setting is: under setting [3], 20%; under setting [4], 12%.

On to `Fc1ccccc1-c1nc2ccn(Cc3ccc(-c4ccc(C(F)(F)F)cc4C(F)(F)F)nn3)cc-2n1` [Tegobuvir], for which the inhibition at 110 µM under setting [3] was 68% and the inhibition at 110 µM under setting [4] was determined as 34%.

With `CCC[C@H](NC(=O)[C@@H]1[C@H]2CCC[C@H]2CN1C(=O)[C@@H](NC(=O)[C@@H](NC(=O)c1cnccn1)C1CCCCC1)C(C)(C)C)C(=O)C(=O)NC1CC1` [Telaprevir], the inhibition at 110 µM amounted to 7% under setting [3] and 0% under setting [4].

Turning to `Cc1cn([C@@H]2C[C@@H](O)[C@H](CO)O2)c(=O)[nH]c1=O` [Telbivudine], the inhibition at 110 µM is, setting by setting: under setting [3], 39%; under setting [4], 1%.

Regarding `C[C@H](Cn1cnc2c(N)ncnc21)OCP(=O)(O)O` [Tenofovir], the inhibition at 110 µM is, setting by setting: under setting [3], 22%; under setting [4], 16%.

As to `COc1ccc2c(c1)CC=C(CO)c1cc3c(cc1-2)OCO3` [Tenuifolin], the inhibition at 110 µM is, setting by setting: under setting [3], 0%; under setting [4], 1%.

With `CN(C/C=C/C#CC(C)(C)C)Cc1cccc2ccccc12` [Terbinafine], the inhibition at 110 µM under setting [3] was 31% and the inhibition at 110 µM under setting [4] is 0%.

For the compound `CC(C)(C)NCC(O)c1cc(O)cc(O)c1` (centres unmarked) [Terbutaline], the inhibition at 110 µM is, setting by setting: under setting [3], 9%; under setting [4], 2%.

For the compound `CC(C)N1CCN(c2ccc(OCC3COC(Cn4cncn4)(c4ccc(Cl)cc4Cl)O3)cc2)CC1` (centres unmarked) [Terconazole], the inhibition at 110 µM amounted to 26% under setting [3] and 3% under setting [4].

As to `CC1(C)CC[C@]2(C(=O)O)CC[C@]3(C)C(=CC[C@@H]4[C@@]5(C)C[C@@H](O)[C@H](O)[C@@](C)(CO)[C@@H]5[C@H](O)C[C@]43C)[C@@H]2C1` [Terminolic acid], the inhibition at 110 µM under setting [3] was 26% and the inhibition at 110 µM under setting [4] was found to be 10%.

In the case of `CN(C)[C@@H]1C(O)=C(C(N)=O)C(=O)[C@@]2(O)C(O)=C3C(=O)c4c(O)cccc4[C@@](C)(O)[C@H]3C[C@@H]12` [Tetracycline], the inhibition at 110 µM by setting is: under setting [3], 39%; under setting [4], 46%.

With `COc1ccc2c(c1OC)CN1CCc3cc4c(cc3C1C2)OCO4` (centres unmarked) [Tetrahydroberberine], the inhibition at 110 µM under setting [3] stood at 2% and the inhibition at 110 µM under setting [4] was 0%.

As to `C[C@H](O)[C@H](O)[C@H]1CNc2nc(N)[nH]c(=O)c2N1` [Tetrahydrobiopterin], the inhibition at 110 µM reads like this: under setting [3], 0%; under setting [4], 3%.

Take `O=C(CCCCc1ccc2c(c1)OCO2)N1CCCCC1` [Tetrahydropiperine]: the inhibition at 110 µM under setting [3] is 0% and the inhibition at 110 µM under setting [4] turned out to be 0%.

Take `c1ccc(C2CN3CCSC3=N2)cc1` (centres unmarked) [Tetramisole, reference compound]: the inhibition at 110 µM reads like this: (0 h, read-out: Inhibition (%) 110 μM (0 h), C. elegans L4 motility, 110 μM, 0 h, mean ± SD of four experiments) 78 ± 2%; (24 h, read-out: Inhibition (%) 110 μM (24 h), C. elegans L4 motility, 110 μM, 24 h, mean ± SD of four experiments) 82 ± 3%.

As to `O=c1c(O)cc([C@H]2Oc3cc(O)cc(O)c3C[C@H]2O)cc2c([C@H]3Oc4cc(O)cc(O)c4C[C@H]3O)cc(O)c(O)c12` [Theaflavin], the inhibition at 110 µM runs as follows: under setting [3], 11%; under setting [4], 5%.

In the case of `Cc1ncc(C[n+]2csc(CCO)c2C)c(N)n1` [Thiamine monochloride], the inhibition at 110 µM under setting [3] is 13% and the inhibition at 110 µM under setting [4] was found to be 6%.

On to `CS(=O)(=O)c1ccc([C@@H](O)[C@@H](CO)NC(=O)C(Cl)Cl)cc1` [Thiamphenicol], for which the inhibition at 110 µM runs as follows: under setting [3], 24%; under setting [4], 1%.

On to `Cc1nc(C(F)(F)F)c(C(=O)Nc2c(Br)cc(OC(F)(F)F)cc2Br)s1` [Thifluzamide], for which the inhibition at 110 µM by setting is: under setting [3], 69%; under setting [4], 29%.
